# Reference: US11612595B2, “Compositions and methods for treating rheumatoid arthritis” (Generos Biopharma Ltd., priority 2017, dated 2023)
# Tests used:
# [1] = system: collagen-induced arthritis (CIA) model mice; experiment: collagen-induced arthritis (CIA) model mice, clinical scores; type: in vivo, DBA/1J mice; design: key to Pairwise analysis of the difference between groups (clinical scores), vs Model / Pairwise analysis of the difference between groups (clinical scores), S5i 5 mpk vs S5i 10 mpk: p values from pairwise comparisons
# Text: FIGS. 8A and 8B show graphs depicting clinical score changes in four groups of CIA mouse models under different treatment schemes. In FIG. 8A, different chemicals (DMSO as control for Model group, blank group is left untreated) were daily administered intraperitoneally at the indicated doses from the first injection of the collagen agent. In FIG. 8B, different chemicals were daily administered intraperitoneally from the second injection of collagen agent at the indicated doses. Clinical scores were given double-blindly according to the scoring scheme every 2 days.
# FIGS. 9A and 9B show graphs of clinical scores at day 44 for each group, the overall difference analyzed by ANOVA is significant p<0.0001, while the p value between Model and each individual group is labeled above the bar * p<0.05, ** p<0.01.
# Eight of nine groups (10 mice in each group) of male DBA/1J mice (age 9-10 weeks. H-2q haplotype) were subject to CIA model induction and then to different treatment schemes. The group of mice without CIA model induction was used as a control (Blank). Specifically, Bovine type II collagen (Chondrex) was mixed with Freund's complete adjuvant (CFA) (Sigma) and injected s.c. to flank near tail of the mice twice (the second injection was made 21 days after the first injection) to create CIA model mice. The eight groups of CIA model mice were separated into four prophylactic groups and four therapeutic groups, with each group subjected to different treatments.
# In the four prophylactic groups, daily treatments started from the date when the first CIA induction injection was made. The first of the four prophylactic groups of CIA model mice were treated with 30% PEG300 (containing 4% DMSO-all 30% PEG300 in the application contains 4% DMSO) solution via intraperitoneal injection as controls (Model). The second of the four prophylactic groups of CIA model mice were treated with nicotinohydrazide (Calbiochem) 10 mg/kg in 30% PEG300 solution via intraperitoneal injection (573108 10 mg/kg). The third of the four prophylactic groups of CIA model mice were treated with nicotinohydrazide (Calbiochem) 5 mg/kg in 30% PEG300 solution via intraperitoneal injection (573108 5 mg/kg). The last of the four prophylactic groups of CIA model mice were treated with Tofacitinib (Selleckchem) 5 mg/kg in 30% PEG300 solution via intraperitoneal injection (Tofacitinib 5 mg/kg).
# In the four therapeutic groups, daily treatments started from the date when the second CIA induction injection was made. The first of the four therapeutic groups of CIA model mice were treated with 30% PEG300 solution via intraperitoneal injection as controls (Model). The second of the four therapeutic groups of CIA model mice were treated with nicotinohydrazide (Calbiochem) 10 mg/kg in 30% PEG300 solution via intraperitoncal injection (573108 10 mg/kg). The third of the four therapeutic groups of CIA model mice were treated with nicotinohydrazide (Calbiochem) 5 mg/kg in 30% PEG300 solution via intraperitoneal injection (573108 5 mg/kg). The last of the four therapeutic groups of CIA model mice were treated with Tofacitinib (Selleckchem) 5 mg/kg in 30% PEG300 solution via intraperitoncal injection (Tofacitinib 5 mg/kg).
# The inventors collected data of the weight, and clinical scores of the mice every 2-3 days and performed statistic analysis. The method used in the statistic analysis was Student's t test, unpaired, two-tailed analysis.
# The clinical scores were derived according to the scheme in Table 2.
# STAT3 = STAT3 (Homo sapiens, UniProt P40763); conditions: Daudi cells; cited from earlier work
# Sequence of STAT3 (P40763 whole entry): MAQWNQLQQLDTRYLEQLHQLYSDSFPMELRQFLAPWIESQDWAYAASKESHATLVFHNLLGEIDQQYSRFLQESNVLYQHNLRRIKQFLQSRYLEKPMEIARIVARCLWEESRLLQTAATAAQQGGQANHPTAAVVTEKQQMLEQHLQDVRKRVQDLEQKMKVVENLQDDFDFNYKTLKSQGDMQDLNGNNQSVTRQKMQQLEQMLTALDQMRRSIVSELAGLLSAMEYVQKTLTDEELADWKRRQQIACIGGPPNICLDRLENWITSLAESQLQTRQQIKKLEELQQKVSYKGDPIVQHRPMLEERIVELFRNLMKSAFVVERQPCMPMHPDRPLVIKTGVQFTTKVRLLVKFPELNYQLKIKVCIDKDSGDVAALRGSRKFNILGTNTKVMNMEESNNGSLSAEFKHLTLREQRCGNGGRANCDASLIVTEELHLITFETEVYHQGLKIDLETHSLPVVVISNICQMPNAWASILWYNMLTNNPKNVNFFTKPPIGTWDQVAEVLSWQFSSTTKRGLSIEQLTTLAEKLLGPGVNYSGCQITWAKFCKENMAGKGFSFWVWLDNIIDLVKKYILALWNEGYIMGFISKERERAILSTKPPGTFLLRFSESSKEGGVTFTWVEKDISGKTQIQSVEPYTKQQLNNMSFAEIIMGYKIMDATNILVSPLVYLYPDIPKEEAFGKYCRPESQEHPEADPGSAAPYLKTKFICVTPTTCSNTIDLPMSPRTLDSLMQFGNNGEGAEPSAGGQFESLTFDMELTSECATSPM
smiles,measurement,setting,value
"O=C(N/N=C/c1coc2ccccc2c1=O)c1cccnc1 [nicotinohydrazide, N′-((4-Oxo-4H-chromen-3-yl)methylene)nicotinohydrazide]",clinical scores compared to Model,"[1]; prophylactic groups, 5 mg/kg i.p. daily",reduced clinical scores
same,clinical scores compared to Model,"[1]; prophylactic groups, 10 mg/kg i.p. daily",reduced clinical scores
same,"Pairwise analysis of the difference between groups (clinical scores), vs Model","[1]; prophylactic groups, 5 mpk, Day 28",0.1019
same,"Pairwise analysis of the difference between groups (clinical scores), vs Model","[1]; prophylactic groups, 5 mpk, Day 30",0.0410
same,"Pairwise analysis of the difference between groups (clinical scores), vs Model","[1]; prophylactic groups, 5 mpk, Day 32",0.0740
same,"Pairwise analysis of the difference between groups (clinical scores), vs Model","[1]; prophylactic groups, 5 mpk, Day 35",0.0615
same,"Pairwise analysis of the difference between groups (clinical scores), vs Model","[1]; prophylactic groups, 5 mpk, Day 37",0.1101
same,"Pairwise analysis of the difference between groups (clinical scores), vs Model","[1]; prophylactic groups, 5 mpk, Day 39",0.0010
same,"Pairwise analysis of the difference between groups (clinical scores), vs Model","[1]; prophylactic groups, 5 mpk, Day 42",0.0185
same,"Pairwise analysis of the difference between groups (clinical scores), vs Model","[1]; prophylactic groups, 5 mpk, Day 44",0.2729
same,"Pairwise analysis of the difference between groups (clinical scores), vs Model","[1]; prophylactic groups, 10 mpk, Day 28",0.1491
same,"Pairwise analysis of the difference between groups (clinical scores), vs Model","[1]; prophylactic groups, 10 mpk, Day 30",0.1452
same,"Pairwise analysis of the difference between groups (clinical scores), vs Model","[1]; prophylactic groups, 10 mpk, Day 32",0.1256
same,"Pairwise analysis of the difference between groups (clinical scores), vs Model","[1]; prophylactic groups, 10 mpk, Day 35",0.0354
same,"Pairwise analysis of the difference between groups (clinical scores), vs Model","[1]; prophylactic groups, 10 mpk, Day 37",0.0614
same,"Pairwise analysis of the difference between groups (clinical scores), vs Model","[1]; prophylactic groups, 10 mpk, Day 39",0.0008
same,"Pairwise analysis of the difference between groups (clinical scores), vs Model","[1]; prophylactic groups, 10 mpk, Day 42",0.0033
same,"Pairwise analysis of the difference between groups (clinical scores), vs Model","[1]; prophylactic groups, 10 mpk, Day 44",0.0128
same,"Pairwise analysis of the difference between groups (clinical scores), S5i 5 mpk vs S5i 10 mpk","[1]; prophylactic groups, Day 28",0.7387
same,"Pairwise analysis of the difference between groups (clinical scores), S5i 5 mpk vs S5i 10 mpk","[1]; prophylactic groups, Day 30",0.5943
same,"Pairwise analysis of the difference between groups (clinical scores), S5i 5 mpk vs S5i 10 mpk","[1]; prophylactic groups, Day 32",0.8722
same,"Pairwise analysis of the difference between groups (clinical scores), S5i 5 mpk vs S5i 10 mpk","[1]; prophylactic groups, Day 35",0.7717
same,"Pairwise analysis of the difference between groups (clinical scores), S5i 5 mpk vs S5i 10 mpk","[1]; prophylactic groups, Day 37",0.8686
same,"Pairwise analysis of the difference between groups (clinical scores), S5i 5 mpk vs S5i 10 mpk","[1]; prophylactic groups, Day 39",0.9741
same,"Pairwise analysis of the difference between groups (clinical scores), S5i 5 mpk vs S5i 10 mpk","[1]; prophylactic groups, Day 42",0.1588
same,"Pairwise analysis of the difference between groups (clinical scores), S5i 5 mpk vs S5i 10 mpk","[1]; prophylactic groups, Day 44",0.0717
same,clinical scores compared to Model,"[1]; therapeutic groups, 5 mg/kg i.p. daily",reduced clinical scores
same,clinical scores compared to Model,"[1]; therapeutic groups, 10 mg/kg i.p. daily",reduced clinical scores
same,"Pairwise analysis of the difference between groups (clinical scores), vs Model","[1]; therapeutic groups, 5 mpk, Day 28",0.0117
same,"Pairwise analysis of the difference between groups (clinical scores), vs Model","[1]; therapeutic groups, 5 mpk, Day 30",0.0295
same,"Pairwise analysis of the difference between groups (clinical scores), vs Model","[1]; therapeutic groups, 5 mpk, Day 32",0.0032
same,"Pairwise analysis of the difference between groups (clinical scores), vs Model","[1]; therapeutic groups, 5 mpk, Day 35",0.0025
same,"Pairwise analysis of the difference between groups (clinical scores), vs Model","[1]; therapeutic groups, 5 mpk, Day 37",0.0024
same,"Pairwise analysis of the difference between groups (clinical scores), vs Model","[1]; therapeutic groups, 5 mpk, Day 39",0.0019
same,"Pairwise analysis of the difference between groups (clinical scores), vs Model","[1]; therapeutic groups, 5 mpk, Day 42",0.0044
same,"Pairwise analysis of the difference between groups (clinical scores), vs Model","[1]; therapeutic groups, 5 mpk, Day 44",0.0012
same,"Pairwise analysis of the difference between groups (clinical scores), vs Model","[1]; therapeutic groups, 10 mpk, Day 28",0.0399
same,"Pairwise analysis of the difference between groups (clinical scores), vs Model","[1]; therapeutic groups, 10 mpk, Day 30",0.0190
same,"Pairwise analysis of the difference between groups (clinical scores), vs Model","[1]; therapeutic groups, 10 mpk, Day 32",0.0080
same,"Pairwise analysis of the difference between groups (clinical scores), vs Model","[1]; therapeutic groups, 10 mpk, Day 35",0.1008
same,"Pairwise analysis of the difference between groups (clinical scores), vs Model","[1]; therapeutic groups, 10 mpk, Day 37",0.1336
same,"Pairwise analysis of the difference between groups (clinical scores), vs Model","[1]; therapeutic groups, 10 mpk, Day 39",0.1189
same,"Pairwise analysis of the difference between groups (clinical scores), vs Model","[1]; therapeutic groups, 10 mpk, Day 42",0.0820
same,"Pairwise analysis of the difference between groups (clinical scores), vs Model","[1]; therapeutic groups, 10 mpk, Day 44",0.0397
same,"Pairwise analysis of the difference between groups (clinical scores), S5i 5 mpk vs S5i 10 mpk","[1]; therapeutic groups, Day 28",0.4163
same,"Pairwise analysis of the difference between groups (clinical scores), S5i 5 mpk vs S5i 10 mpk","[1]; therapeutic groups, Day 30",0.8721
same,"Pairwise analysis of the difference between groups (clinical scores), S5i 5 mpk vs S5i 10 mpk","[1]; therapeutic groups, Day 32",0.4838
same,"Pairwise analysis of the difference between groups (clinical scores), S5i 5 mpk vs S5i 10 mpk","[1]; therapeutic groups, Day 35",0.0249
same,"Pairwise analysis of the difference between groups (clinical scores), S5i 5 mpk vs S5i 10 mpk","[1]; therapeutic groups, Day 37",0.0183
same,"Pairwise analysis of the difference between groups (clinical scores), S5i 5 mpk vs S5i 10 mpk","[1]; therapeutic groups, Day 39",0.0183
same,"Pairwise analysis of the difference between groups (clinical scores), S5i 5 mpk vs S5i 10 mpk","[1]; therapeutic groups, Day 42",0.0777
same,"Pairwise analysis of the difference between groups (clinical scores), S5i 5 mpk vs S5i 10 mpk","[1]; therapeutic groups, Day 44",0.0842
same,IFN-α-stimulated STAT3 tyrosine phosphorylation,STAT3,not
